Test [1] deals with Cyclin-dependent kinase 1 (Homo sapiens, UniProt P06493). As to the kind of experiment: Inhibition of cyclin B activated Cyclin-dependent kinase 1 (CDK1).
The target in test [2] is Epidermal growth factor receptor (Homo sapiens) (UniProt P00533). Put plainly: Inhibition of Epidermal growth factor receptor at 10 uM.
Test [3] concerns the target Cyclin-dependent kinase 2 (Homo sapiens, UniProt P24941). As to the kind of experiment: Inhibition of cyclin A activated Cyclin-dependent kinase 2 (CDK2).
The target in test [4] is T1, Protein kinase C alpha type (Homo sapiens, UniProt P17252). As to the kind of experiment: Inhibition of Protein kinase C alpha at 10 uM.
The target in test [5] is Cyclin-dependent kinase 4 (Homo sapiens, UniProt P11802). Put plainly: Inhibition of cyclin D1 activated Cyclin-dependent kinase 4 (CDK4).
The target of test [6] is Vascular endothelial growth factor receptor 2 (Homo sapiens) (UniProt P35968). As to the kind of experiment: Inhibition of Vascular endothelial growth factor receptor 2 (VEGF-KDR) at 10 uM.
In the next test the test system is HCT-116. Put plainly: Inhibition of HCT116 (transformed colon) cell proliferation. The format is functional, cell-based. The conditions noted are these: Homo sapiens.
Test [7] concerns the target Glycogen synthase kinase-3 (Homo sapiens, UniProt P49840+P49841). Put plainly: inhibition of Glycogen synthase kinase-3. It counts as protein assay.
Test [8] deals with T1, Protein kinase C alpha type. Put plainly: Inhibition of Protein kinase C alpha.

Chain of Cyclin-dependent kinase 4 (P11802 whole entry): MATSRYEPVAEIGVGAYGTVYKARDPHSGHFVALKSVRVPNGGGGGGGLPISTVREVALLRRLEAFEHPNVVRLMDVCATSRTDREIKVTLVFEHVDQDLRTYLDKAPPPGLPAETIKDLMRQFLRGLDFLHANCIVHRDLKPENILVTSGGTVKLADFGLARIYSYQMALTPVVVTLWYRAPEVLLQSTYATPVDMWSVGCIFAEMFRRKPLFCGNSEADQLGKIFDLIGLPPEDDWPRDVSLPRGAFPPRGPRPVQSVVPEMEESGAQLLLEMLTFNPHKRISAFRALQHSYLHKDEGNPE
Chain of Vascular endothelial growth factor receptor 2 (Homo sapiens) (P35968 whole entry): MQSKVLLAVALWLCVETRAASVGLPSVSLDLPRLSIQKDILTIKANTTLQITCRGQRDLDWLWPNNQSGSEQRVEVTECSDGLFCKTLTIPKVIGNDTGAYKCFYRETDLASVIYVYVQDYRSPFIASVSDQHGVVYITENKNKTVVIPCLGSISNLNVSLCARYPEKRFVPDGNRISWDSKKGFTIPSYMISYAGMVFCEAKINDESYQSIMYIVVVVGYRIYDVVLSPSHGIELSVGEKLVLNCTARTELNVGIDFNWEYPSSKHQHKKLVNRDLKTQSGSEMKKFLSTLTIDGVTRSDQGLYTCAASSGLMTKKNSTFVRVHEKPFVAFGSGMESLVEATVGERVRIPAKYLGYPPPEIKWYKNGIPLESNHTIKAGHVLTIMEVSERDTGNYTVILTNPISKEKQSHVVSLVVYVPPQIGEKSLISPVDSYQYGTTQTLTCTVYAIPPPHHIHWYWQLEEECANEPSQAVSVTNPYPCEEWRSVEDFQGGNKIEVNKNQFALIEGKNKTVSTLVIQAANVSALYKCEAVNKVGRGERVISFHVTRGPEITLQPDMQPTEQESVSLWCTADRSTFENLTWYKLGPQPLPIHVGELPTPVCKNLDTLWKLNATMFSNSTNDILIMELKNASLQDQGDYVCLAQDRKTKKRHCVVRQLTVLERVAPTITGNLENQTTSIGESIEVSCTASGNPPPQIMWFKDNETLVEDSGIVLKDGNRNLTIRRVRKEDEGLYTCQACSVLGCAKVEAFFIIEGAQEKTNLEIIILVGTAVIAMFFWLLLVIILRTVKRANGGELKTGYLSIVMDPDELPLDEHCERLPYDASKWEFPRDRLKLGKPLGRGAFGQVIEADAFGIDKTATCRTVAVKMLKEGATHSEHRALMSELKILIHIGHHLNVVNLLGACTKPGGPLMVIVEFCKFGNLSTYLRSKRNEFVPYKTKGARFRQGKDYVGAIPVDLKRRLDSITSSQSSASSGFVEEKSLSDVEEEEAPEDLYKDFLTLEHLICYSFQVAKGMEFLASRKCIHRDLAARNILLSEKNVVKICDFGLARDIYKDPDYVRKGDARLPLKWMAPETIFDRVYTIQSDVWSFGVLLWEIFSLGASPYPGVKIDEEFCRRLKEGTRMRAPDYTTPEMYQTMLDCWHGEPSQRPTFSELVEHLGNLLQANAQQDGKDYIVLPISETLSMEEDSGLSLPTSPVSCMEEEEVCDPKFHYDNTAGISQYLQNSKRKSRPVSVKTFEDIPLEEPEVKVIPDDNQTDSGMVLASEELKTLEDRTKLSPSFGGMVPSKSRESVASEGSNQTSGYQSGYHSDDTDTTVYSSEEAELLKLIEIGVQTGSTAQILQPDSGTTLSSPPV
Chain of Epidermal growth factor receptor (Homo sapiens) (P00533 whole entry): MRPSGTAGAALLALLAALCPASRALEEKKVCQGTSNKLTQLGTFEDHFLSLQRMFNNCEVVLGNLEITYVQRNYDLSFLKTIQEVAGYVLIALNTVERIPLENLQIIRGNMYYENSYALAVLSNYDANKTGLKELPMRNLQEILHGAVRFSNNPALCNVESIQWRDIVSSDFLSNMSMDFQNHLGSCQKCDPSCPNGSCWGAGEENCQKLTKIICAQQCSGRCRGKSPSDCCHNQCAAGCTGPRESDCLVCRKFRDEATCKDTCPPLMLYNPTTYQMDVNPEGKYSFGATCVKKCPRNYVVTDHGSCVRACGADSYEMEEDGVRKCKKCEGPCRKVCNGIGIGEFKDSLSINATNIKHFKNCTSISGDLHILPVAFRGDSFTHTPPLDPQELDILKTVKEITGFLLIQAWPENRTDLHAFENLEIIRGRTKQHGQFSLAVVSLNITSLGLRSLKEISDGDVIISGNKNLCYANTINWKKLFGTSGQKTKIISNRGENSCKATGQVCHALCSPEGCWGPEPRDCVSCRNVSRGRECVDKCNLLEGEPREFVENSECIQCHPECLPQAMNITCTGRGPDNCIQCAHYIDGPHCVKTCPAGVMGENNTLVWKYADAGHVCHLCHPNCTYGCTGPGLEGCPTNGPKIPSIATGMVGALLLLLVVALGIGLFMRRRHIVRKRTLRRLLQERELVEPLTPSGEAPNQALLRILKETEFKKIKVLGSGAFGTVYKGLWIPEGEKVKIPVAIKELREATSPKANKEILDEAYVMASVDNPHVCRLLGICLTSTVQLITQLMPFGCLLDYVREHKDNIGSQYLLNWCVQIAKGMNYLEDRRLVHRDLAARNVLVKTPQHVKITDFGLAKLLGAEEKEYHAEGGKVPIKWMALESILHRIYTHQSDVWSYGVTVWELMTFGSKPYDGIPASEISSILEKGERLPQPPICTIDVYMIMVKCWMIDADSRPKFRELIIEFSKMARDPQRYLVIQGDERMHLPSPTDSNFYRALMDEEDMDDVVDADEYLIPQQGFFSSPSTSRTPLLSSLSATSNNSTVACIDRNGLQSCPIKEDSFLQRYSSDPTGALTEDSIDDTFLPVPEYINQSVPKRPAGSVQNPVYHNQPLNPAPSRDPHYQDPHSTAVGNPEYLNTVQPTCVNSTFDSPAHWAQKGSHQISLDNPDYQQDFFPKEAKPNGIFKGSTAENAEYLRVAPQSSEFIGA
Chain of Cyclin-dependent kinase 1 (P06493 whole entry): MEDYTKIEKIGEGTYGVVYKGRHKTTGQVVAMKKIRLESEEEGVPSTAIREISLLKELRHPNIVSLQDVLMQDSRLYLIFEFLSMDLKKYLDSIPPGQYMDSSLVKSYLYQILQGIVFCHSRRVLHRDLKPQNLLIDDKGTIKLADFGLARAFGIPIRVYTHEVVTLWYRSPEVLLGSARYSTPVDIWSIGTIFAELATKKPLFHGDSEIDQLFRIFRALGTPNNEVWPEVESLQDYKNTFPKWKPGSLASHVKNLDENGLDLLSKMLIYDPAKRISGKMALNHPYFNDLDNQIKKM

As for `CN1CCC(c2c(O)cc(O)c3c2O/C(=C\c2ccc(N4CCN(C)CC4)cc2)C3=O)CC1`, the 50% inhibitory concentration (IC50) in [1] came out at 800 nM; in test [3], 2980 nM; in test [5] it was 1920 nM; in the test on HCT-116 it was 24800 nM; in test [7], 1750 nM. The inhibition came to 29% in [2], 21% in [4] and 25% in test [6].
Take `CN1CCC(c2c(O)cc(O)c3c2O/C(=C\c2ccccc2Cl)C3=O)CC1`: the IC50 was determined as 600 nM in [1]; 3970 nM in test [3]; 25300 nM in [5]; 20100 nM in the test with HCT-116; 10000 nM in test [7]. Also, the inhibition in test [4] is 22%; in test [6] it was 17%.
With `CN1CCC(c2c(O)cc(O)c3c2O/C(=C\c2ccccc2)C3=O)CC1`, the IC50 in [1] was 110 nM; in test [3], 1280 nM; in [5], 4410 nM; in the test with HCT-116 it was greater than 50000 nM; in [7], 4200 nM. The inhibition was 38% in test [2], 19% in test [4] and 2% in test [6].
Take `CN1CCC(c2c(O)cc(O)c3c2O/C(=C\c2ccc([N+](=O)[O-])cc2)C3=O)CC1`: the figures for the inhibition in [2] and in [6] were 43% and 37%, respectively. Also, the IC50 in test [3] was determined as 310 nM; in test [8] it was 22000 nM; in [5], 2210 nM; in the test on HCT-116, 35600 nM; in test [7], 4800 nM.
For the compound `CN1CCC(c2c(O)cc(O)c3c2O/C(=C\c2ccc(S(N)(=O)=O)cc2)C3=O)CC1`, the IC50 in [1] was 9 nM; in test [3], 30 nM; in test [5], 1870 nM; with HCT-116 it was greater than 50000 nM; in test [7] it was 3700 nM. Moreover, the figures for the inhibition in test [2], in test [4] and in test [6] were 36%, 42% and 25%, respectively.

The values are drawn from ChEMBL document CHEMBL1135924, “Structure-based design and synthesis of 2-benzylidene-benzofuran-3-ones as flavopiridol mimics” (J Med Chem, 2002).
